Patent US20090068746A1, “METHOD FOR MEASURING INTERACTION BETWEEN PHYSIOLOGICALLY ACTIVE SUBSTANCE AND TEST SUBSTANCE” (FUJIFILM Corporation, priority 2007, published 2009)

System: Carbonic Anhydrase (CA)
Assay: Surface plasmon resonance binding of compound to biotinylated CA-immobilized substrate
Conditions: for Binding signal (binding observed or not) / Amount of 100 nM Hydrochlorothiazide bound: 100 nM in 1×PBS (pH 7.4); for Binding signal (binding observed or not): all the substrates; for Binding activity / Mean binding activity: 100 nM; for Binding activity: one-to-one binding assumed, molecular weight conversion; for Mean binding activity: mean of the three substrates (7450, 3400, 1600 RV CA)

Row | Binding signal (binding observed or not) | Amount of 100 nM Hydrochlorothiazide bound (amount of CA immobilized 1600 RV, Comparative example (without calibration)) | Amount of 100 nM Hydrochlorothiazide bound (amount of CA immobilized 1600 RV, Example (with calibration of baseline, third curve approximation)) | Amount of 100 nM Hydrochlorothiazide bound (amount of CA immobilized 3400 RV, Example (with calibration of baseline, third curve approximation)) | Amount of 100 nM Hydrochlorothiazide bound (amount of CA immobilized 7450 RV, Comparative example (without calibration)) | Amount of 100 nM Hydrochlorothiazide bound (amount of CA immobilized 7450 RV, Example (with calibration of baseline, third curve approximation)) | Binding activity (CA immobilized 1600 RV, with calibration) | Binding activity (CA immobilized 1600 RV, without calibration) | Binding activity (CA immobilized 3400 RV, with calibration) | Binding activity (CA immobilized 3400 RV, without calibration) | Binding activity (CA immobilized 7450 RV, with calibration) | Binding activity (CA immobilized 7450 RV, without calibration) | Mean binding activity (with calibration) | Mean binding activity (without calibration) | SMILES
1 | binding signal was observed | 7.1 RV | 7.3 RV | 16.3 RV | 25.4 RV | 31.7 RV | 45.9% | 44.7% | 48.2% | 40.6% | 42.8% | 34.4% | 45.6% | 39.9% | NS(=O)(=O)c1cc2c(cc1Cl)NCNS2(=O)=O [Hydrochlorothiazide]
2 | no binding was observed |  |  |  |  |  |  |  |  |  |  |  |  |  | O=C(O)c1cccnc1 [Nicotinic acid]
